Source: US20220089663A1, “PROTEINS AND FLUOROPHORE-CONTAINING COMPOUNDS SELECTIVE FOR NaV1.7” (MEMORIAL SLOAN KETTERING CANCER CENTER, priority 2019, published 2022)

Legend:
[1] = 10 μM, human serum, 37° C.
[2] = test system: mouse sciatic nerves; experiment: epifluorescence imaging (IVIS Spectrum) of sciatic nerves and organs 30 min after injection; assay type: in vivo; conditions: 30 minutes after systemic injection
Protocol: Animal Model. Female athymic nude mice (4-8 week-old, athymic-Nude (outbred) (Stock #: 088; Envigo, USA) were allowed to acclimatize at the Memorial Sloan Kettering Cancer Center (MSK) vivarium for 1 week with ad libitum food and water prior to the experimental procedure. For imaging experiments, animals were sacrificed 30 min post-tail vein injection of Hs1a-FL, Hs1a/Hs1a-FL, Hsp1a-FL, Hsp1a/Hsp1a-FL, or PBS. All animal experiments were performed in accordance with institutional guidelines and approved by the IACUC of MSK, following NIH guidelines for animal welfare.
Epifluorescence Imaging. Animals were intravenously injected with Hsp1a-FL (7 nmol, 68 μM of Hsp1a-FL in 100 μL of PBS, n=9), or Hs1a-FL (4 nmol, 45 μM of Hs1a-FL in 100 μL of PBS, n=3). To assess the specificity of the Hsp1a-FL or Hs1a-FL accumulation, animals were injected with a combination of Hsp1a and Hsp1a-FL (Hsp1a-FL, 68 μM, 7 nmol and Hsp1a 204 μM, 21 nmol in 100 μL PBS, n=9), Hs1a and Hs1a-FL (Hs1a-FL, 45 μM, 4 nmol and Hs1a, 120 μM, 12 nmol in 100 μL PBS, n=3) or PBS (n=9). Animals were sacrificed 30 min post-injection and epifluorescence images obtained. Epifluorescence images of the right sciatic nerve (RSN) and the left sciatic nerve (LSN) were obtained in situ. Epifluorescence of the biodistribution of the peptides in excited RSN, LSN, muscle, heart, kidney, liver, and brain were acquired with IVIS Spectrum (PerkinElmer) using a predefined GFP filterset (e.g., excitation=465/30 nm, emission=520-580 nm) based on the particular fluorophore employed in the compounds. Autofluorescence was removed through spectral unmixing. Semiquantitative analysis of the Hsp1a-FL or Hs1a-FL signal was conducted by measuring the average radiant efficiency (in units of unit [p/s/cm^2/sr]/[μW/cm^2]) in regions of interest (ROIs) that were placed on all resected organs under white light guidance.

[3] = in vitro; conditions: human, serum
[4] = target: T1, hNav1.7 (Homo sapiens, UniProt Q15858); experiment: automated whole-cell patch clamp (QPatch 16X), HEK293-hNav1.7; assay type: cell-based
T1 construct: host or cells: HEK293
T1 sequence (Q15858 whole entry): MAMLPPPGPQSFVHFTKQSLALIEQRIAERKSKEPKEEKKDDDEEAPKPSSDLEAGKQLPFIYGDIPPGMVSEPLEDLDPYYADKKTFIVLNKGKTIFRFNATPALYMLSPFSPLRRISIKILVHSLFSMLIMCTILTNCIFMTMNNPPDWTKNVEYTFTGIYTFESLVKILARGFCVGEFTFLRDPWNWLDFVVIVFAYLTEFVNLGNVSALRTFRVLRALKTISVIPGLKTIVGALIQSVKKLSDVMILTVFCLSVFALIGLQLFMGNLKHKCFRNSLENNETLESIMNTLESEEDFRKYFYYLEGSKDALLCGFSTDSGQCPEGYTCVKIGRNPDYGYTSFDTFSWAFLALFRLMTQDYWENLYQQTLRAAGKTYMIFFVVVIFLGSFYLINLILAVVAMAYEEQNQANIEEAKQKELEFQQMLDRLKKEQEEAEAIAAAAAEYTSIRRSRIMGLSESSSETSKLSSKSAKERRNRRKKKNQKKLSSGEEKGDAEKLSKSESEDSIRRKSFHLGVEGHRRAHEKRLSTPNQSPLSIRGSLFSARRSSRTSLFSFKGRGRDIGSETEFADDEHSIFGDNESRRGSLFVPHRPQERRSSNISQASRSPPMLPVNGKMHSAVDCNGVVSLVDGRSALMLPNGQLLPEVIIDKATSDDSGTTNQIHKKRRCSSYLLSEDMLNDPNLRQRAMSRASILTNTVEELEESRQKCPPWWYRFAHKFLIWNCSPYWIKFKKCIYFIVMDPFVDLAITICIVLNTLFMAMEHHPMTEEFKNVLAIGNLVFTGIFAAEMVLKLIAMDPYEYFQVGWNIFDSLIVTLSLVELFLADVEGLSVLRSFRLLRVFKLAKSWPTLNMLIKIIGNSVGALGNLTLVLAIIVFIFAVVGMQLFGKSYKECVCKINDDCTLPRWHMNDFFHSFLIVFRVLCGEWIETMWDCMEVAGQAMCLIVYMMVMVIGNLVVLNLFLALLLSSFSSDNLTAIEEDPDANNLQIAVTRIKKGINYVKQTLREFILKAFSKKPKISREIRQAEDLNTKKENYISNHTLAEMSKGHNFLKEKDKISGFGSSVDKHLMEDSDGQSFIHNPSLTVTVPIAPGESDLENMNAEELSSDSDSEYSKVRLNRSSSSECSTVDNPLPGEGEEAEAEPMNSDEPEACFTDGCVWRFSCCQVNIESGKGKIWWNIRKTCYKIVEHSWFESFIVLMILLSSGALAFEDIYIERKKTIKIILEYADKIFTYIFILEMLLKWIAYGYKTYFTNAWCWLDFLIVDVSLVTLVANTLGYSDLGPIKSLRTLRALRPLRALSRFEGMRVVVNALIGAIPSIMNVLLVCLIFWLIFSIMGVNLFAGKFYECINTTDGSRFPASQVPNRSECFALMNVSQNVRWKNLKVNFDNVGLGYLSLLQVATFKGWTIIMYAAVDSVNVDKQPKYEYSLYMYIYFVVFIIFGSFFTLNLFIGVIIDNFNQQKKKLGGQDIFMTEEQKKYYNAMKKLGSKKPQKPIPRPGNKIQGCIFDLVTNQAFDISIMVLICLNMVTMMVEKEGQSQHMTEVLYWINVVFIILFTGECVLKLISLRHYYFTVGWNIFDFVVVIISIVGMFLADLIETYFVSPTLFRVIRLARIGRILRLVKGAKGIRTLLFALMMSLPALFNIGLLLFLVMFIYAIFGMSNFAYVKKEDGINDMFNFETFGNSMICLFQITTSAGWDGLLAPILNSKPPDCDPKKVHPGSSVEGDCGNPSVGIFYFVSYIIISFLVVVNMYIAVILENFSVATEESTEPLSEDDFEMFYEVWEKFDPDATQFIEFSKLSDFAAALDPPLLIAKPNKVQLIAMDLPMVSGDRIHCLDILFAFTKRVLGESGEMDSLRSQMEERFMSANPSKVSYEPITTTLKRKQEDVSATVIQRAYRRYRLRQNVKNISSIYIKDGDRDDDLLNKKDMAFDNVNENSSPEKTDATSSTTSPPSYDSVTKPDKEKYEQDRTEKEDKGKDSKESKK
T1 sequence (Q07699 19-218, further chain): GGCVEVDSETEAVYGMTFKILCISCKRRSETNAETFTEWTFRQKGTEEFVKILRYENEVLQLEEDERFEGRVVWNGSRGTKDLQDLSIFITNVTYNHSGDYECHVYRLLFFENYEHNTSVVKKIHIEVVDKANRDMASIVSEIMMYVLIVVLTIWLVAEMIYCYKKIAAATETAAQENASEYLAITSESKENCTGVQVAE

[5] = acute in vivo toxicity after intravenous injection; parameters: species or system mouse
Protocol: Acute in vivo toxicity. All animal experiments were performed in accordance with protocols approved by the Institutional Animal Care and Use Committee of MSK and followed the National Institute of Health guidelines for animal welfare. Six athymic nude mice 6-8 weeks old were purchased from Envigo RMS, Inc. An intravenous (IV) catheter was placed in tail vein of each mouse and they were anesthetized using Isoflurane (Novaplus, Telangana-India). Anesthesia was maintained using 1.0 to 1.5 L/min of Isoflurane and 2 L/min of oxygen. Three animals were injected with 68 μM, 7 nmol Hsp1a-FL in 100 μL of PBS, and the other three with […], of PBS. Animals were monitored using a rodent surgical monitor (Indus instruments, Houston, Tex.) before, during, and up to 16 minutes after injection. Numeric data points represent averaged values of 5±1 seconds duration. Data was collected before injection, 15 seconds after injection, 5 minutes after injection and 15 minutes after injection. Mouse body core temperature was measured by placing a rectal probe and electronically regulated via a surgical platform. The high-resolution electrocardiogram (EKG) was measured by placing non-invasive electrodes on the 4 paws and electrical contact was assured using a conducting gel (Electrode cream, Indus instruments, Houston, Tex.). Heart rate was automatically calculated from the R-R peaks derived from the EKG signal. Peripheral capillary oxygen saturation (SpO2) was non-invasively measured by placing a clip sensor on the animal's left thigh.
Statistical Analysis. Data were statistically analyzed by generalized estimating equations followed by LSD post hoc test when appropriate using SPSS 23.0. During animal toxicity studies, data points representing loss of signal were excluded from the analysis. Loss of signal was defined by a brief contact loss between the monitoring equipment and the mice (creating a “false” zero or −1 result). Loss of signal was corrected by placing the electrode in close contact to the mice. Average and standard deviations were calculated for each mouse.
Unless otherwise stated, data points represent mean values and error bars represent the standard deviation of biological replicates (mean±SEM). All p-values were calculated using a Student's unpaired t-test. Statistical significance was considered for p-values<0.05 and as follows: ns=not significant, *p<0.05, **p<0.01, ***p<0.001. Mann-Whitney tests were used for analysis of the unpaired samples (e.g. vital signs in mice injected with Hsp1a and mice from the control group) and the Wilcoxon test was used for analysis of paired samples (e.g. vital signs from same mouse before and after injection). Statistical significance was determined with alpha=0.05. Analysis and figures were prepared in GraphPad Prism 8.

CC[C@H](C)[C@@H]1NC(=O)[C@H](CCCNC(=N)N)NC(=O)[C@H](CC(=O)O)NC(=O)[C@H](CCSC)NC(=O)[C@H](CCCNC(=N)N)NC(=O)CNC(=O)CNC(=O)[C@H](Cc2ccccc2)NC(=O)[C@@H](NC(=O)[C@H](CO)NC(=O)[C@H](CO)NC(=O)[C@H](CCCNC(=N)N)NC(=O)[C@H](CCCNC(=N)N)NC(=O)[C@H](CC(C)C)NC(=O)[C@@H](N)CO)CSSC[C@@H](C(=O)N[C@@H](CC(N)=O)C(=O)N[C@@H](CO)C(=O)N[C@@H](Cc2ccccc2)C(=O)N[C@@H](CCCNC(=N)N)C(=O)N[C@@H](Cc2ccc(O)cc2)C(=O)O)NC(=O)CNC(=O)[C@H](CC(C)C)NC(=O)CNC(=O)[C@H](CO)NC(=O)[C@H](CCC(N)=O)NC(=O)[C@H](C)NC(=O)CNC1=O [hANP, reference compound]
time of incubation in which degraded [1]: 1 to 2 h

YCQK(CY7.5)FLWTCDSERPCCEGLVCRLWCKIN-NH2 (N-terminal YCQK(CY7.5) extension; C-terminal amide) [Hsp1a-CY7.5]
biodistribution in various tissues [2]: limited to the peripheral nervous system

CSCC[C@@H]1NC(=O)[C@H](CC(C)C)NC(=O)[C@H](CCCNC(=N)N)NC(=O)[C@H](CO)NC(=O)[C@@H]2CSSC[C@@H]3NC(=O)[C@H](CO)NC(=O)CNC(=O)[C@H]([C@@H](C)O)NC(=O)[C@H](CSSC[C@H](N)C(=O)N[C@@H](CCCCN)C(=O)NCC(=O)N[C@@H](CCCCN)C(=O)NCC(=O)N[C@@H](C)C(=O)N[C@@H](CCCCN)C(=O)N2)NC(=O)[C@H](CSSC[C@@H](C(N)=O)NC(=O)[C@H](CCCCN)NC(=O)CNC(=O)[C@H](CO)NC(=O)[C@H](CCCNC(=N)N)NC3=O)NC(=O)[C@H](CC(=O)O)NC(=O)[C@H](Cc2ccc(O)cc2)NC1=O [MVIIA]
remaining at 24 h [3]: 50%

YCQK(IR-800)FLWTCDSERPCCEGLVCRLWCKIN-NH2 (N-terminal YCQK(IR-800) extension; C-terminal amide) [Hsp1a-IR800]
biodistribution in various tissues [2]: limited to the peripheral nervous system

CC[C@H](C)[C@H](NC(=O)[C@H](CCCCN)NC(=O)[C@@H]1CSSC[C@@H]2NC(=O)[C@@H]3CCCN3C(=O)[C@H](CCCNC(=N)N)NC(=O)[C@H](CCC(=O)O)NC(=O)[C@H](CO)NC(=O)[C@H](CC(=O)O)NC(=O)[C@@H]3CSSC[C@H](NC(=O)[C@H](C(C)C)NC(=O)[C@H](CC(C)C)NC(=O)CNC(=O)[C@H](CCC(=O)O)NC(=O)[C@H](CSSC[C@H](NC(=O)[C@@H](N)Cc4ccc(O)cc4)C(=O)N[C@@H](CCC(N)=O)C(=O)N[C@@H](CCCCN)C(=O)N[C@@H](Cc4ccccc4)C(=O)N[C@@H](CC(C)C)C(=O)N[C@@H](Cc4c[nH]c5ccccc45)C(=O)N[C@@H]([C@@H](C)O)C(=O)N3)NC2=O)C(=O)N[C@@H](CCCNC(=N)N)C(=O)N[C@@H](CC(C)C)C(=O)N[C@@H](Cc2c[nH]c3ccccc23)C(=O)N1)C(=O)N[C@@H](CC(N)=O)C(N)=O [Hsp1a]
pIC50 difference to sHsp1a on hNav1.7 [4]: no significant pIC50s difference
IC50 ([4]; HEK293 cells stably expressing human channel, read-out: IC50 Nav1.7): 0.013 µM
average core temperature ([5]; 15 seconds post injection): 34.5 °C
average core temperature ([5]; 5 min post-injection): 34.6 °C
average core temperature ([5]; 15 minutes post-injection): 34.6 °C
EKG pattern ([5]; before and up to 16 minutes after injection): No changes were observed

YCQK(BODIPY665)FLWTCDSERPCCEGLVCRLWCKIN-NH2 (N-terminal YCQK(BODIPY665) extension; C-terminal amide) [Hsp1a-BODIPY665]
biodistribution in various tissues [2]: limited to the peripheral nervous system

YCQK(DY-684)FLWTCDSERPCCEGLVCRLWCKIN-NH2 (N-terminal YCQK(DY-684) extension; C-terminal amide) [Hsp1a-DY-684]
biodistribution in various tissues [2]: limited to the peripheral nervous system

YCQK(Jane1ia669)FLWTCDSERPCCEGLVCRLWCKIN-NH2 (N-terminal YCQK(Janelia669) extension; C-terminal amide) [Hsp1a-Janelia669]
biodistribution in various tissues [2]: limited to the peripheral nervous system
